According to patent US11135233B2, “Methods for preventing or mitigating acute allergic responses using human milk oligosaccharides” (Abbott Laboratories, priority 2013, dated 2021):

Experiments:
[1] = tested on: bone marrow mast cells (BMMC); assay: In vitro mast cell degranulation (β-hexosaminidase release) in sensitized BMMC exposed to HMO; type: cell-based, Balb/c mice; settings: anti-DNP IgE sensitized BMMC, HMO at a range of concentrations 30 min prior to DNP-HSA activation; FIG. 1A/1B
Method: The ability of HMOs to attenuate mast cell degranulation was tested by exposing sensitized bone marrow mast cells (BMMC) to either 2′-FL or 6′-SL.
BMMC from female Balb/c mice were obtained by culturing the bone marrow cells in enriched RPMI-1640 medium with 10% pokeweed mitogen-stimulated spleen as a source of mast cell growth factors for 3 weeks. The cells were kept at a concentration of 0.2×10^5 cells/ml in a 5% CO2, 37° C. environment, where the medium was changed weekly. BMMC were used for experiments after 3-4 weeks of culture (>95% mast cells). BMMC were sensitized with 1 ug/ml monoclonal anti-dinitrophenyl (DNP) IgE clone and seeded into 96-well plates at a final concentration of 1×10^6 cells/ml. […] Cell supernatants were harvested 30 min after DNP-HSA stimulation and stored at −20° C. until analyzed. […] Results are expressed as a percentage of total β-hexosaminidase. […]
This assay was conducted to assess in-vitro antigen-induced degranulation of mast cells. […] The release of β-hexosaminidase from mast cells was measured from the supernatant. […] The reaction was stopped with 100 μl citrate buffer pH 4.5 and read by using CytoFluor 2350 fluorescent spectrophotometer at 450 nm (excitation 356 nm). B-hexosaminidase release was presented as a percentage of the total B-hexosaminidase release determined by cell lysis with 1×triton-X.

OVA-sensitized mice [2] = assay: OVA-induced food allergy model: diarrhea score; type: in vivo; settings: 200 ul of 5 mg/ml in PBS daily oral gavage day 27 to 49; versus untreated or lactose treated OVA-sensitized mice; FIG. 4A/4B
Method: (§1) The ability of HMOs to attenuate the gastrointestinal mast cell response was determined by measuring the amount of diarrhea, change in body temperature, and change in mouse mast cell protease-1 (mMCP-1) levels in HMO treated mice relative to untreated and lactose treated control mice.
(§2) The OVA-induced food allergy model was modified from Yamaki and Yoshino (Allergy. 2012; 67:1259-70). Mice were sensitized with 50 μg of OVA (Sigma, St. Louis, Mo.) and 2 mg of alum (Sigma, St. Louis, Mo.) in 200 μl of Phosphate Saline Buffer (PBS) on day 0 and 14. HMO (200 ul of 5 mg/ml in PBS) treatments (2′-FL or 6′-SL) were administrated daily via oral gavage from day 27 to day 49. Mice were orally challenged with 50 μg of OVA every 3 days (Days: 28, 31, 34, 37, 40, 43, 46 and 49). On challenge days treatments were given 1 hour prior to OVA challenge. On day 49, serum, spleen and intestinal samples, were obtained. Non-sensitized PBS challenged mice served as negative controls.
Diarrhea symptoms were scored by visually monitoring mice for 60 minutes after challenge as follows: 0, normal stools; 1, a few wet an unformed stools; 2, a number of wet an unformed stools with moderate perianal staining of the coat; 3, severe, watery stool with severe perianal staining of the coat.

[3] = tested on: skin mast cell response in sensitized mice; assay: Passive cutaneous anaphylaxis (PCA), skin mast cell response, Evans blue dye in ear pinnae; type: in vivo; settings: oral gavage 1 mg per mouse daily for 5 days; anti-DNP IgE i.d., DNP-HSA i.v.; FIG. 3
Method: The ability of HMOs to attenuate skin mast cell responses, as measured by the PCA response, was determined in sensitized mice fed 2′-FL, phosphate buffered saline (PBS), lactose, or 6′-SL by detecting the level of dye in ear pinnae indicative of the PCA response.
Mice were treated with 2′-FL, 6′-SL, lactose or PBS by oral gavage (1 mg per mouse) daily for 5 days. On day 4 mice were sensitized by intradermal (i.d.) injection of anti-DNP IgE (10 ng in […] saline) into the right ear pinnae while the left ear was injected with saline alone. Twenty-four hours later, DNP-HSA (10 mg/kg) together with Evans blue (100 mg/kg) was injected intravenously (i.v.). 1 hour following i.v. injection mice were euthanized and ear pinnae collected. Evans blue dye was extracted by incubating the skin samples in DMSO for 24 h at 37° C., and measuring the optical density (O.D.) at 650 nm. Data is presented as the difference in O.D. between the control (left) and sensitized (right) ear.

OVA-sensitized mice [4] = assay: OVA-induced food allergy model: rectal temperature after final antigen challenge; type: in vivo; settings: 200 ul of 5 mg/ml in PBS daily oral gavage; 1 hour following final OVA challenge; versus untreated or lactose treated; FIG. 5A/5B
Method: as §1, §2
Rectal temperature was monitored for 1 hour following the final antigen challenge.

[5] = tested on: mouse mast cell protease-1 (mMCP-1); assay: OVA-induced food allergy model: serum mMCP-1 concentration; type: in vivo, mice; settings: 200 ul of 5 mg/ml in PBS daily oral gavage; day 49; versus untreated and lactose treated OVA-sensitized controls; FIG. 6
Method: as §1, §2
Following body temperature measurements, mice were euthanized and serum mMCP-1 concentration was determined.

SMILES | β-hexosaminidase (β-Hex) activity relative to controls (percentage of total β-hexosaminidase) [1] | stool (diarrhea) score (OVA-sensitized mice [2]) | difference in Evans blue dye (O.D. at 650 nm) between control (left) and sensitized (right) ear [3] | decline in rectal temperature (OVA-sensitized mice [4]) | serum mMCP-1 levels [5]
CC(=O)N[C@H]1[C@H]([C@H](O)[C@H](O)CO)O[C@@](OC[C@H]2O[C@@H](O[C@H]3[C@H](O)[C@@H](O)[C@H](O)O[C@@H]3CO)[C@H](O)[C@@H](O)[C@H]2O)(C(=O)O)C[C@@H]1O [6′-SL, 6′-sialyllactose] | significant decrease | but not 6′-SL, Significantly Decreases Diarrhea Symptoms | greater difference in dye detected between right and left ears in PBS and lactose-treated mice than in mice treated with 2′-FL or 6′-SL | but not 6′-SL, Mitigates the Decline in Rectal Temperature | but not 6′-SL, produced a significant decrease
OC[C@H]1O[C@@H](O[C@H]2[C@H](O)[C@@H](O)C(O)O[C@@H]2CO)[C@H](O)[C@@H](O)[C@H]1O (stereo partly drawn) [lactose, reference compound] |  |  | greater difference in dye detected |  | 
